Measurements published in patent publication US4985434A, “7-substituted derivatives of 2-amino-3H,5H-pyrrolo(3,2-d)pyrimidin-4-ones and pharamceutical uses and compositions containing the same” (Biocryst, Inc., priority 1989, dated 1991).
Where two headings read alike, the source gives them in different places.

What was measured:
[1] = molecular target: T1, purine nucleoside phosphorylase (PNP) (Bos taurus, UniProt P55859); assay: PNP enzyme assay, radiochemical formation of [14C]-hypoxanthine from [14C]-inosine, calf spleen enzyme; type: biochemical; conditions: for enzyme-inhibition activity: tested as in Example 8
T1 construct: using calf spleen as the enzyme source; from tissue; host or cells: calf spleen
T1 sequence (P55859 1-289): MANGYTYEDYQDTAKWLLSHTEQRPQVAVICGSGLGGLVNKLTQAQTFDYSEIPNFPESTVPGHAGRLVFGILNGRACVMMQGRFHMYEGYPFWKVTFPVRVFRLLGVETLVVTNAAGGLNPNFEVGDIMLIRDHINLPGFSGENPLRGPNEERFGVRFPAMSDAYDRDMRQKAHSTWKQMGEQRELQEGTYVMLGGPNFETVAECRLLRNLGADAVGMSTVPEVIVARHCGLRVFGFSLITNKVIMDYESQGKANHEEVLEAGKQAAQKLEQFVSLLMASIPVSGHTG

plasma inosine = plasma inosine in Lewis Rats after intraperitoneal injection (HPLC); type: in vivo; conditions: 30 mg (IA), twice per day, 10% DMSO aqueous carrier, vs vehicle controls, other compounds per procedure of Example 16
Description: A pharmaceutical composition for intraperitoneal injection is prepared for testing the compound (IA). An intraperitoneal injection solution containing the compound (IA) is dissolved in an aqueous carrier that contains ten percent DMSO.
The compound (IA) is intraperitoneally injected into Lewis Rats via the test composition of Example 15 to provide 30 mg of the compound (IA), with an injection given twice per day. Controls are used, which receive only the vehicle. At specific times after administration, the animals are sacrificed and plasma samples are prepared. The plasma is extracted with cold 0.5N HClO4 and neutralized with solid NH4 HCO3. After removal of perchlorate salts, the extract is subjected to HPLC on a reversed phase column (Spherisorb ODSI).
Compounds prepared as in Examples 10-14 are each made into a pharmaceutical formulation in accordance with the preparation of Example 15 and the resultant injectable solutions are tested in accordance with the procedure of Example 16.

`Nc1nc2c(C3CCCCC3)c[nH]c2c(=O)[nH]1` [ID, 2-amino-7-(cyclohexyl)-3H,5H-pyrrolo[3,2-d]-pyrimidin-4-one] showed an IC50 [1] of 145 µM and an IC50 ([1]; 1 mM phosphate, calf spleen PNP, read-out: IC50) of 1.3 µM.
With `Nc1nc2c(C3=CCCCC3)c[nH]c2c(=O)[nH]1` [IA, 2-amino-7-(1-cyclohexenyl)-3H,5H-pyrrolo [3,2-d]pyrimidin-4-one] the “increase in plasma inosine” value (plasma inosine) was “significant increase in plasma inosine”.
For `Nc1nc2c(C3CC=CCC3)c[nH]c2c(=O)[nH]1` (centres unmarked) [IC, 2-amino-7-(3-cyclohexenyl)-3H, 5H-pyrrolo[3,2-d]-pyrimidin-4-one], the enzyme-inhibition activity ([1]; calf spleen PNP) was “significant enzyme-inhibition activity”.
For `Nc1nc2c(C3C=CCCC3)c[nH]c2c(=O)[nH]1` (centres unmarked) [IB, 2-amino-7-(2-cyclohexenyl)-3H, 5H-pyrrolo[3,2-d]pyrimidin-4-one], the enzyme-inhibition activity ([1]; calf spleen PNP) was “significant enzyme-inhibition activity”.
